Reference: patent publication US20120046273A1, “COMPOUNDS AND COMPOSITIONS FOR COGNITION-ENHANCEMENT, METHODS OF MAKING, AND METHODS OF TREATING” (MITHRIDION, INC., priority 2009, published 2012)

Columns and labels:
[1] = molecular target: T1, human muscarinic M1 receptors (Homo sapiens, UniProt P11229); experiment: Inositol phosphate production in huM1/A9L cells (IPOne TR-FRET); format: cell-based; conditions: for huM1/A9L Smax: percentage of maximal stimulation by carbachol; for huM1/A9L ED50 relative to CCh: potency relative to carbachol
T1 construct: expressed in transfected cells; host or cells: A9L cells (gift from Professor W Messer)
T1 sequence (P11229 1-460): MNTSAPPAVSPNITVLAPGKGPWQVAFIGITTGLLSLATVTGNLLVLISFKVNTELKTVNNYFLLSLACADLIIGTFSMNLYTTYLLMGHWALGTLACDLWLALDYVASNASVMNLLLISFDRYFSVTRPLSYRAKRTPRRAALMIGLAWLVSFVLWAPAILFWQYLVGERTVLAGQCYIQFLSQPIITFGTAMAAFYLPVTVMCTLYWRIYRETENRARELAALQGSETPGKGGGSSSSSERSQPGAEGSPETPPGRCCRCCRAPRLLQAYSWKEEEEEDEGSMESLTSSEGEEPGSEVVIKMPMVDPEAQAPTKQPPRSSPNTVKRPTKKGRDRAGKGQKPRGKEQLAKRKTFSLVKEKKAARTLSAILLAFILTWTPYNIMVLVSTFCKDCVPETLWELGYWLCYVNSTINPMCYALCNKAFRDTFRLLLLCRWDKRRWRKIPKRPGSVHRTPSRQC
Procedure: (§1) Muscarinic M1 and M3 agonist activity was evaluated by measuring the stimulation of inositol phosphate (IP) production in the presence of lithium chloride from A9L cells transfected with expression plasmids containing human muscarinic M1 and M3 receptors, respectively. The cell lines were a gift from Professor W Messer, and the methods were as described in Tejada F R et al. J. Med. Chem. 2006; 49: 7518-31 except that the assay was scaled down to run in 384 well plates, and IP was measured in the cell lysates using the non-isotopic IPOne TR-FRET assay (CIS-BIO, Inc).
(§2) Cells were grown to 90% confluence in 384 well hi-base plates (Greiner Bio-One), compounds were added at suitable concentrations in growth medium containing 10 mM LiCL, buffered with an extra 10 mM HEPES (pH7.4), and incubated for 60 minutes at 37° C. Cells were lysed and assayed for IP following the manufacturer's instructions.
(§3) The value for a full agonist is 100%, while partial agonists give values below 100%.

[2] = molecular target: T2, human muscarinic M3 receptors (Homo sapiens, UniProt P20309); experiment: Inositol phosphate production in huM3/A9L cells (IPOne TR-FRET); format: cell-based; conditions: for huM3/A9L Smax: percentage of maximal stimulation by carbachol; for huM3/A9L ED50 relative to CCh: potency relative to carbachol
T2 construct: expressed in transfected cells; host or cells: A9L cells (gift from Professor W Messer)
Procedure: as §1, §2, §3

[3] = tested on: pooled male Sprague-Dawley rat liver microsomes; experiment: Metabolism by rat liver microsomes; format: in vitro ADME; conditions: 6 hours incubation
Procedure: (§4) Compounds were incubated with pooled male Sprague-Dawley rat liver microsomes (BD Biosciences, #452501) and an NADP-regenerating system in a phosphate buffer (pH 7.4) for a total of 6 hours. Aliquots were removed every 2 hours, and 1% formic acid was added to halt the reaction. Samples were centrifuged, filtered through 0.2 micron spinfilter and the amount of each compound in the supernatants was quantitated using LC/MS/MS.

[4] = tested on: pooled male human liver microsomes; experiment: Metabolism by human liver microsomes; format: in vitro ADME; conditions: for extent of metabolism in human liver microsomes: 6 hours incubation; for rate of metabolism compared with the other enantiomer: human liver microsomes, as also in rat liver microsomes and FMO Supersomes
Procedure: as §4, with “human” for “Sprague-Dawley rat”, “#452172)” for “#452501)”

[5] = tested on: apomorphine induced climbing; experiment: Apomorphine induced climbing model of psychosis; format: in vivo, CD-I mice; conditions: mice, sc
Procedure: As described in Costall et. al. European Journal of Pharmacology 1978, 50, 39. individual CD-I mice, 1-2 months old, were placed in a cylindrical wire mesh cage (13.2 cm high×13.2 cm diameter) constructed of steel wire 1 mm thick spaced at 1.2 cm^2. Cylinders were placed in a standard OptiMICE mouse cage (29×32×9×29 cm wide and 14 cm high) with adequate wood chip bedding provided. Observations of climbing (defined as 3 or more paws off the ground) were carried out every 5 minutes at a duration of 1 minute for 30 minutes. Animals were injected subcutaneously under isoflurane anesthesia with test compounds, reference compounds, which included clozapine, haloperidol, olanzapine and xanomeline, or PBS as a control. This was followed 5 minutes later by 2 mg/kg apomorphine hydrochloride. All drugs were dissolved in PBS or a mixture of (by volume) 96% PBS and 4% hydroxypropyl-beta-cyclodextrin, and dosed at a rate of 5 ml per kilogram of body weight. Following injections, animals were replaced in the mesh cages and observed for climbing (defined as 3 or more paws off the ground) every 5 minutes for a duration of 1 minute for 60 minutes after dosing.

T2 sequence (P20309 whole entry): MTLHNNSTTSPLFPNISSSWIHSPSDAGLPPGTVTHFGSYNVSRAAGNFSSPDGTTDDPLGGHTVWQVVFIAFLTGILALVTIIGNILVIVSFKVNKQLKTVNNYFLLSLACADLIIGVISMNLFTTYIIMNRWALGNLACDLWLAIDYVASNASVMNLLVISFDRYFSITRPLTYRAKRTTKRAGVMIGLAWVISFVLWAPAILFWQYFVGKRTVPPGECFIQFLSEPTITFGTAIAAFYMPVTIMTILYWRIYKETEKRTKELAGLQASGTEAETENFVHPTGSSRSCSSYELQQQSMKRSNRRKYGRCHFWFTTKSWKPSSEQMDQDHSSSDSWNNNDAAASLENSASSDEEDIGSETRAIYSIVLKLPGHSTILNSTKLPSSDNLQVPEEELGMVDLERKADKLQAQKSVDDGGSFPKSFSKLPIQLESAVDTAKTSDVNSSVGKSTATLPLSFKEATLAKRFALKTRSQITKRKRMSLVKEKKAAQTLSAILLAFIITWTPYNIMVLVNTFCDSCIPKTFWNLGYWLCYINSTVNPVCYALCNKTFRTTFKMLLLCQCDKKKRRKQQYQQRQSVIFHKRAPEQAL

Row | PAMPA (? × 106) (PAMPA test) | rate of crossing the lipid layer in the PAMPA test (PAMPA test) | SMILES | huM1/A9L Smax [1] [%] | huM1/A9L ED50 relative to CCh [1] | huM3/A9L Smax [2] [%] | huM3/A9L ED50 relative to CCh [2] | extent of metabolism in rat liver microsomes [3] | extent of metabolism in human liver microsomes [4] | activity in the apomorphine induced climbing model [5] | rate of metabolism compared with the other enantiomer [4]
1 |  |  | Cc1noc(C2CCCN(C)C2)n1 (stereo not shown) [Compound 86, 3-Methyl-5-(1-methylpiperidin-3-yl)-1,2,4-oxadiazole] | 20 | inactive | 20 | inactive |  |  |  | 
2 |  |  | Cc1noc(C2CCC(C)NC2)n1 (stereo not shown) [Compound 102, 3-Methyl-5-(6-methylpiperidin-3-yl)-1,2,4-oxadiazole] | 14 | inactive | 18 | inactive |  |  |  | 
3 |  |  | Cc1noc([C@H]2CC[C@H](C)NC2)n1 [Compound 103] | 15 | inactive | 34 | inactive |  |  |  | 
4 |  |  | Cc1noc([C@H]2CCCN[C@@H]2C)n1 [Compound 109] | 3 | inactive | 20 | inactive |  |  |  | 
5 |  |  | Nc1noc(C2CCCNC2)n1 (stereo not shown) [Compound 111, 3-Amino-5-(piperidin-3-yl)-1,2,4-oxadiazole] | 97 | + (potency 2-10x CCh) | 20 | +/− (potency 0.5-2x CCh) |  |  |  | 
6 |  |  | Cc1noc([C@H]2CNC[C@@H](C)C2)n1 [Compound 104] | 9 | inactive | 20 | inactive |  |  |  | 
7 |  |  | Cc1noc(C2CCCNC2)n1 (single isomer, unassigned) [Compound 84, 3-methyl-5-(piperidin-3-yl)-1,2,4-oxadiazole] | 129 | + (potency 2-10x CCh) | 66 | +/− (potency 0.5-2x CCh) | far more stable than compounds 126 and 127 | metabolized significantly less in human liver microsomes than in rat liver microsomes |  | 
8 |  |  | Cc1noc([C@@H]2CCCN[C@@H]2C)n1 [Compound 108] | 41 | −− (potency <0.1x CCh) | 32 | inactive |  |  |  | 
9 | 16.3 ? × 106 | highest rate of penetration | Cc1noc(C2(F)CCCNC2)n1 (stereo not shown) [Compound 118, 5-(3-fluoropiperidin-3-yl)-3-methyl-1,2,4-oxadiazole] |  | − (potency <0.5-0.1x CCh) |  | −− (potency <0.1x CCh) |  |  |  | 
10 |  |  | [2H]C([2H])([2H])c1noc(C2CCCNC2)n1 (single isomer, unassigned) [Compound 90, 3-(methyl-d3)-5-(piperidin-3-yl)-1,2,4-oxadiazole] | 81 | +/− (potency 0.5-2x CCh) | 76 | −− (potency <0.1x CCh) | far more stable than compounds 126 and 127 | metabolized significantly less in human liver microsomes than in rat liver microsomes |  | 
11 |  |  | Cc1noc(C2CCCNC2)n1 (single isomer, unassigned) [Compound 83, 3-methyl-5-(piperidin-3-yl)-1,2,4-oxadiazole] | 147 | +/− (potency 0.5-2x CCh) | 47 | − (potency <0.5-0.1x CCh) | far more stable than compounds 126 and 127 | metabolized significantly less in human liver microsomes than in rat liver microsomes | potent and effective | metabolized faster than the enantiomers
12 |  |  | [2H]C([2H])([2H])c1noc(C2CCCNC2)n1 (single isomer, unassigned) [Compound 89, 3-(methyl-d3)-5-(piperidin-3-yl)-1,2,4-oxadiazole] | 90 | + (potency 2-10x CCh) | 86 | +/− (potency 0.5-2x CCh) | far more stable than compounds 126 and 127 | metabolized significantly less in human liver microsomes than in rat liver microsomes | potent and effective | metabolized faster than the enantiomers
13 |  |  | Cc1noc([C@@H]2CNC[C@@H](C)C2)n1 [Compound 105] | 18 | inactive | 14 | inactive |  |  |  | 
14 |  |  | CCc1noc(C2CCCNC2)n1 (stereo not shown) [Compound 128, 3-ethyl-5-(piperidin-3-yl)-1,2,4-oxadiazole, reference compound] | 15 | inactive | <14 | inactive |  |  |  | 
15 |  |  | Cc1noc(C2CCNC2)n1 (stereo not shown) [Compound 115, 3-methyl-5-(pyrrolidin-3-yl)-1,2,4-oxadiazole] |  | + (potency 2-10x CCh) |  | − (potency <0.5-0.1x CCh) |  |  |  | 
